# Experimental data: patent publication US20230391727A1, “ANALOGUES OF PENTAMIDINE AND METHODS FOR TREATING INFECTIONS” (Auransa Inc., priority 2020, published 2023)
# Experiments:
# Test in all cases: Checkerboard/MIC assay with rifampicin
# Type in all cases: cell-based
# [1] = test system: Pseudomonas aeruginosa (BCCM 27647); conditions: Pseudomonas aeruginosa BCCM27647
# Description: (§1) The 17 test strains/isolates were: (1) Serratia marcescens (ATCC 13880); (2) Salmonella typhimurium (ATCC 13311); (3) Salmonella choleraesuis (ATCC 10708); (4) Acinetobacter baumannii (ATCC BAA-1605); (5) A. baumannii (ATCC 17978); (6) A. baumannii (FDA-CDC AR-BANK#0088); (7) Citrobacter freundii (ATCC 8090); (8) Pseudomonas aeruginosa (BCCM 27647); (9) P. aeruginosa (BCCM 27648); (10) Escherichia coli (ATCC 25922); (11) E. coli (ATCC 10536); (12) Stenotrophomonas maltophilia (ATCC 13637); (13) Enterobacter cloacae (ATCC BAA-1143); (14) E. cloacae (ATCC 13047); (15) E. aerogenes (ATCC 13048); (16) Klebsiella pneumoniae (NCTC 13438); and (17) Klebsiella pneumoniae (FDA-CDC AR-BANK#0160). These bacterial strains were obtained from the American Type Culture Collection (ATCC, Rockville, MD, USA); Belgian Coordinated Collections of Microorganisms; The Culture Collections of Public Health England, UK; and FDA-CDC anticimrobial Resistance Isolate Bank, USA, and cryopreserved as single-use frozen working stock cultures which were stored at −80° C.
# (§2) The 17 test strains were grown on nutrient agar or tryptic soy agar (TSA) medium as below. Colonies were suspended in phosphate buffered saline (PBS) pH 7.4. The absorbance of the bacterial suspension was measured with a spectrophotometer at OD620nm, and then the suspension was adjusted to 1-2×10^8 CFU/mL in PBS. The adjusted suspension was further diluted 1:500 in cation-adjusted Mueller-Hinton Broth. Each well contained approximately 5×10^5 CFU/mL. […] The testing inoculum was prepared within minutes before adding to wells of the test plate.
# (§3) Compound 3 was tested in 8 points by two-fold serial titrations from 100 to 0.78 μg/mL. […] Assay plates were incubated and MIC endpoints were read as complete inhibition of visual growth. The checkerboard combination analysis was performed following the MIC testing protocol to identify potential synergistic, indifferent or antagonistic interactions. The analysis also included each test substance alone at the same concentration ranges.
# (§4) FIC (Fraction Inhibitory Concentration) and FIC Index (FICI) values for each test condition and the average of FICI values of all pairwise combinations were calculated to determine if synergy or antagonism existed between the two substances. The FIC index was determined by calculating the sum of the ratios of MICs (minimum inhibitory concentrations) for both substances. […] Synergy is defined as the FICI (Σ)≤0.5; additivity or indifference are defined as the FICI (Σ)>0.5 to ≤4; antagonism is defined as the FICI (Σ)>4. The two fold of highest test article concentration was used for FIC value calculations in the circumstances where MIC values were greater than the highest test article concentration.
# [2] = test system: Serratia marcescens (ATCC 13880)
# Description: as §1, §2, §3, §4
# [3] = test system: P. aeruginosa (BCCM 27648); conditions: Pseudomonas aeruginosa BCCM27648
# Description: as §1, §2, §3, §4
# [4] = test system: Klebsiella pneumoniae (NCTC 13438)
# Description: as §1, §2, §3, §4
# E. coli (ATCC 10536) = conditions: Escherichia coli ATCC 10536
# Description: as §1, §2, §3, §4
# [5] = test system: Stenotrophomonas maltophilia (ATCC 13637)
# Description: as §1, §2, §3, §4
# [6] = test system: A. baumannii (ATCC 17978); conditions: Acinetobacter baumannii ATCC 17978
# Description: as §1, §2, §3, §4
# [7] = test system: A. baumannii (FDA-CDC AR-BANK#0088); conditions: Acinetobacter baumannii AR-BANK 0088
# Description: as §1, §2, §3, §4
# [8] = test system: Citrobacter freundii (ATCC 8090)
# Description: as §1, §2, §3, §4
# [9] = test system: Salmonella typhimurium (ATCC 13311); conditions: Salmonella typhimurium ATCC13311
# Description: as §1, §2, §3, §4
# [10] = test system: Escherichia coli (ATCC 25922)
# Description: as §1, §2, §3, §4
# [11] = test system: E. aerogenes (ATCC 13048); conditions: Enterobacter aerogenes ATCC-13048
# Description: as §1, §2, §3, §4
# [12] = test system: Acinetobacter baumannii (ATCC BAA-1605); conditions: Acinetobacter baumannii BAA-1605
# Description: as §1, §2, §3, §4
# [13] = compound 3 in combination with rifampicin
smiles,measurement,setting,value
"N=C(N)c1ccc(CC[C@H]2CCC[C@@H](CCc3ccc(C(=N)N)cc3)C2)cc1 [Compound 3, 4,4′-(2,2′-((1R,3S)-cyclohexane-1,3-diyl)bis(ethane-2,1-diyl))dibenzimidamide]",Combination Result,[1]; [13],additivity/
same,FICI (Average),[1]; [13],1.03
same,MIC,[1]; substance alone,25 µg/mL
same,MIC,"[2]; ATCC13880, substance alone",> 100 µg/mL
same,Combination Result,[2]; [13],synergy (Synergy is defined as the FICI (Σ)≤0.5)
same,FICI (Average),[2]; [13],0.21
same,Combination Result,[3]; [13],additivity/
same,FICI (Average),[3]; [13],1.03
same,MIC,[3]; substance alone,25 µg/mL
same,MIC,"[4]; NCTC13438, substance alone",50 µg/mL
same,Combination Result,[4]; [13],synergy (Synergy is defined as the FICI (Σ)≤0.5)
same,FICI (Average),[4]; [13],0.22
same,MIC,"E. coli (ATCC 10536); ATCC10536, substance alone",6.25 µg/mL
same,Combination Result,E. coli (ATCC 10536); [13],synergy (Synergy is defined as the FICI (Σ)≤0.5)
same,FICI (Average),E. coli (ATCC 10536); [13],0.48
same,MIC,"[5]; ATCC13637, substance alone",12.5 µg/mL
same,Combination Result,[5]; [13],synergy (Synergy is defined as the FICI (Σ)≤0.5)
same,FICI (Average),[5]; [13],0.39
same,MIC,"[6]; ATCC17978, substance alone",25 µg/mL
same,Combination Result,[6]; [13],synergy (Synergy is defined as the FICI (Σ)≤0.5)
same,FICI (Average),[6]; [13],0.27
same,Combination Result,[7]; [13],synergy (Synergy is defined as the FICI (Σ)≤0.5)
same,FICI (Average),[7]; [13],0.31
same,MIC,[7]; substance alone,25 µg/mL
same,MIC,"[8]; ATCC8090, substance alone",100 µg/mL
same,Combination Result,[8]; [13],synergy (Synergy is defined as the FICI (Σ)≤0.5)
same,FICI (Average),[8]; [13],0.19
same,MIC,"[9]; Salmonella enterica, substance alone",12.5 µg/mL
same,Combination Result,[9]; [13],synergy (Synergy is defined as the FICI (Σ)≤0.5)
same,FICI (Average),[9]; [13],0.34
same,MIC,"[10]; ATCC25922, substance alone",6.25 µg/mL
same,Combination Result,[10]; [13],additivity/
same,FICI (Average),[10]; [13],0.52
same,MIC,"[11]; Klebsiella aerogenes, ATCC13048, substance alone",100 µg/mL
same,Combination Result,[11]; [13],synergy (Synergy is defined as the FICI (Σ)≤0.5)
same,FICI (Average),[11]; [13],0.19
same,Combination Result,[12]; [13],synergy (Synergy is defined as the FICI (Σ)≤0.5)
same,FICI (Average),[12]; [13],0.31
same,MIC,[12]; substance alone,25 µg/mL
